Earlier results, collected in patent US6815409B2, “Gel laundry detergent and/or pretreater which piles up after dispensing” (Unilever Home & Personal Care USA division of Conopco, Inc., priority 2002, dated 2004).

Details: chain length 16; cited from Proc. R. Soc. London, A133, 140, 1931

Measured pKa value: 8.5
SMILES: CCCCCCCCCCCCCCCC(=O)O [Fatty acid chain length 16]
